Measured values: patent US4550116A, “Piperidine derivatives” (Fordonal, S.A., priority 1983, dated 1985)

Experiments:
adrenaline = assay: Protection against a lethal dose of adrenaline; format: in vivo, swiss mice; conditions: Mus musculus; 100 mg/kg oral, 1 h before 2 mg/kg intravenous adrenaline; mice; read-out: TEST D ANTI-ADRENALINE (animals surviving 15 min later)
Description: D. Protection against a lethal dose of adrenaline
Groups of 10 .male. swiss mice (25±3 g) were pretreated orally with compounds (100 mg/kg) suspended in carboxymethyl cellulose 1 h before receiving an intraveneous injection of 2 mg/kg adrenaline. The number of animals surviving 15 min later was noted and expressed as a percentage.

rat hindquarters = assay: Rat hindquarter preparation, responses to high-K+ Krebs' solution; conditions: for duration of anti-vasoconstrictor effects, compared with terfenadine and cinnarizine: in vitro, rat hindquarter preparation; for TEST A RAT HINDQUARTERS % Inhibition: maximum percentage inhibition, 10^-7 M perfused for 20 minutes, 80 mM K+; for TEST A RAT HINDQUARTERS % Recovery: recovery of response at 1 h following perfusion with normal Krebs' solution, 10^-7 M
Description: A Rat hindquarter preparation
Responses of rat hindquarters perfused at constant rate were elicited by high -K^+ (80 mM) Krebs' solution. Test compounds (10^-7 M) were perfused for 20 minutes and then compound-free Krebs' perfusion was resumed for 40 min.

histamine H1-receptor = assay: Antihistamine activity in anaesthetized rats (vasodepressor responses to histamine); format: in vivo, rat; conditions: 0.3 mg/kg i.v.; pentobarbitone anaesthetized rats
Description: B. Antihistamine activity in anaesthetized rats
Test compounds were administered to pentobarbitone anaesthetized rats at 0.3 mg/kg i.v. following stable, submaximal, vasodepressor responses to histamine.

in vivo = conditions: mouse, oral, mice, 48 hour period, unit from method b50, read-out: TEST E ACUTE TOXICITY (approximate LD50)
Description: Acute toxicity was assessed in groups of 3 mice given the test compounds suspended in 1% carboxymethylcellulose at 30, 100, 300 and 1000 mg/kg orally.

histamine aerosol = assay: Histamine aerosol, protection of guinea-pigs; format: in vivo, guinea-pig
[1] = 0.3 mg/kg oral, 1 hour before 5 minute challenge of nebulized histamine, groups of 5

| SMILES | responders at 100 mg/kg (adrenaline) | duration of anti-vasoconstrictor effects, compared with terfenadine and cinnarizine (rat hindquarters) | TEST A RAT HINDQUARTERS % Inhibition (rat hindquarters) | TEST A RAT HINDQUARTERS % Recovery (rat hindquarters) | TEST B ANTIHISTAMINE IN RAT (inhibition of the histamine response) (histamine H1-receptor) | LD50 at 48 h (in vivo) | TEST C ANT[…] (protection) (histamine aerosol; [1]) | H1-histamine receptor antagonist properties, orally against histamine aerosol (histamine aerosol; oral) | TEST C ANTIHISTAMINE AEROSOL (protection) (histamine aerosol; [1]) |
| --- | --- | --- | --- | --- | --- | --- | --- | --- | --- |
| CC(C)(C)c1ccc(C(=O)CCCN2CCC(OC(c3ccc(F)cc3)c3ccc(F)cc3)CC2)cc1 [Compound 7, 4-di(4-fluorophenyl)methoxy-1-[3-(4-tert-butylbenzoyl)propyl]-piperidine] | 40% | much longer lasting | 62% | 13% | +++ (50-75%) |  |  |  |  |
| O=C(CCCN1CCC(OC(c2ccccc2)c2ccccc2)CC1)c1ccc(CC2CC2)cc1 [Compound 4, 4-diphenylmethoxy-1-[3-(4-cyclopropylmethylbenzoyl)propyl]-piperidine] | 40% | much longer lasting | 75% | 40% | ++ (25-50%) |  |  |  |  |
| OC(CCCN1CCC(OC(c2ccccc2)c2ccccc2)CC1)c1ccc(C2CCCCC2)cc1 (stereo not drawn) [Compound 6, 4-diphenylmethoxy-α-(4-cyclohexylphenyl)-1-piperidinebutanol] | 20% |  | 57% | 55% | ++ (25-50%) |  |  |  |  |
| CC(C)c1ccc(C(=O)CCCN2CCC(OC(c3ccccc3)c3ccccc3)CC2)cc1 [Compound 2, 4-diphenylmethoxy-1-[3-(4-isopropylbenzoyl)propyl]-piperidine] | 50% |  | 59% | 50% | +++ (50-75%) | > 1000 mg/kg |  |  |  |
| CC(C)(C)c1ccc(C(=O)CCCN2CCC(OC(c3ccccc3)c3ccccc3)CC2)cc1 [Compound 1, 4-diphenylmethoxy-1-[3-(4-tert-butylbenzoyl)propyl]-piperidine] | 50% |  |  | 56% |  |  | +++ (>50% protection) | extremely potent |  |
| CC(C)(C)c1ccc(C(=O)CCCN2CCC(OC(c3ccccc3)c3cccs3)CC2)cc1 (stereo not drawn) [Compound 5, 4-[α-(2-thienyl)benzyloxy]-1-[3-(4-tert-butylbenzoyl)propyl]-piperidine] |  | much longer lasting | 65% | 40% | +++ (50-75%) |  |  |  |  |
| CC(C)(C)c1ccc(C(O)CCCN2CCC(C(O)(c3ccccc3)c3ccccc3)CC2)cc1 (stereo not drawn) [TERFENADINE, α-[4-(1,1-dimethylethyl)phenyl]-4-(hydroxydiphenylmethyl)-1-piperidinebutanol, reference compound] | 20% |  | 44% | 100% |  | > 1000 mg/kg |  |  | + (10-25%) |
| CCc1ccc(C(=O)CCCN2CCC(OC(c3ccccc3)c3ccccc3)CC2)cc1 [Compound 3, 4-diphenylmethoxy-1-[3-(4-ethylbenzoyl)propyl]-piperidine] | 20% | much longer lasting | 65% | 50% | +++ (50-75%) |  |  |  |  |
| CC(C)(C)c1ccc(C(O)CCCN2CCC(OC(c3ccccc3)c3ccccc3)CC2)cc1 (stereo not drawn) [Compound 8, 4-diphenylmethoxy-α-(4-tert-butylphenyl)-1-piperidinebutanol] | 60% |  | 69% | 58% | ++ (25-50%) |  |  |  | ++ (25-50%) |
